# Results taken from patent US10287617B2, “Methods for in vitro—in vivo efficacy determination” (COLORADO STATE UNIVERSITY RESEARCH FOUNDATION, priority 2014, dated 2019).
# “Also recorded” adds a separate entry of the source. Read-outs that look alike come from different tables or passages of the source. Marks after values point to notes of the source that are not given here.
# What was measured:
# [1] = test system: M. tuberculosis clinical isolates; experiment: microbe, parasite or virus in culture; assay type: cell-based, Mycobacterium tuberculosis; settings: Mycobacterium tuberculosis, read-out: minimal inhibitory concentrations
# M. tuberculosis H37Rv [2] = experiment: Growth inhibition / time dose curves (OD600 and CFU); assay type: cell-based, Mycobacterium tuberculosis; settings: for reduction in number of viable bacteria: 1×MIC
# M. tuberculosis H37Rv [3] = experiment: MIC / dose response by modified microplate Alamar Blue assay (MABA); assay type: cell-based, Mycobacterium tuberculosis
# M. tuberculosis TN587 = experiment: microbe, parasite or virus in culture; assay type: cell-based, Mycobacterium tuberculosis; settings: Mycobacterium tuberculosis
# [4] = 100 ng/mL
# Experimental: Plasma was spiked with the compound in order to obtain a final drug concentration of 100 ng/mL (expressed as non-salified compound). The spiked plasma (dedicated to C1h and C4h) was then incubated at 37° C. for 1 h and 4 h. Plasma samples were analyzed by LC-MS/MS following protein precipitation. The limit of quantification for compounds was 10 ng/mL.
# 10 μL of the sample was injected to Luna Phenomenex C8 (50 mm×2.0 mm, 3 μm). Solvent A: ammonium acetate (0.15 g)/formic acid (2 mL)/HPLC water up to 1000 mL. Solvent B: ammonium acetate (0.15 g)/formic acid (2 mL)/Methanol (200 mL)/Acetonitrile up to 1000 mL, flow rate of 0.3 mL/min, t=0-6 min. gradient of 10-90% of B. Retention time for SB-P17G-C2 was 1.85 min and for SB-P17G-A20 was 3.3 min. MS/MS condition used for detection: Finnigan TSQ Quantum disco instrument, Excalibur version 2.0 acquisition system, ESI positive ion ionization mode. The mean percent of difference between C1h or C4h and C0 concentrations was calculated. M % D (%)=100×[(C1h or C4h)−C0]/C0
# The compounds were considered as stable if the mean percent of difference between C4h and C0 concentrations was less than 20%.
# M. tuberculosis NHN382 = experiment: microbe, parasite or virus in culture; assay type: cell-based, Mycobacterium tuberculosis; settings: Mycobacterium tuberculosis
# [5] = Oxidative metabolic lability in human liver microsomes; settings: 5 μM, 1 mg/mL microsomal protein, 20 min
# Experimental: (§3) Microsomal fractions were prepared in the Drug Disposition Domain at DSAR Montpellier (371 rue du Pr. J. Blayac, 34184 Montpellier Cedex 04, France). […] The flavin-containing monooxygenases (FMO)-dependent reactions were run in the presence of bovine serum albumin (BSA, 0.1%) for the duration of 0 and 20 min (with or without microsomal proteins and/or cofactors). […] Following protein precipitation with acetonitrile and their removal by centrifugation, supernatant fluids were analyzed by LC/MS-MS.
# (§4) Thermo Finnigan TSQ Quantum Ultra instrument, ESI positive ion ionization mode. Each compound is studied in duplicates. Results are expressed in percentage of lability (or total metabolism). Total metabolism=[1−(UC_Peak Area+Cofactor at T20)/(UC_Peak Area Reference at T0)]×100
# (§5) The reactions were prepared as described and were run in the presence of bovine scrum albumin (BSA, 0.1%) for the duration of 0 and 20 min (with or without microsomal proteins and/or cofactors). Enzyme activity was stopped, the protein was precipitated and removed by centrifugation. The supernatant fluids were analyzed by LC/MS-MS. […] A Thermo Finnigan TSQ Quantum Ultra instrument, ESI positive ion ionization mode was used for MS/MS. Each compound was studied in duplicates. Results are expressed in percentage of lability (or total metabolism) using the following formula: Total metabolism=[1−(UC_Peak Area+Cofactor at T20)/(UC_Peak Area Reference at T0)]×100 where UC=Unchanged Compound; “Reference” sample was NADPH for liver microsomal preparation.
# M. tuberculosis W210 = experiment: microbe, parasite or virus in culture; assay type: cell-based, Mycobacterium tuberculosis; settings: Mycobacterium tuberculosis
# M. tuberculosis = experiment: Benzimidazoles activity tested in animals (animal models of infection, Table A); assay type: in vivo, mouse; settings: Table A
# Experimental: (§1) Further analysis using the methods described herein was performed on the compounds found in Tables A and B (bold font compounds are shown in FIG. 11) resulting in the data found therein.
# Compound efficacy was assessed in two murine models of infection based on the short term model described previously (Lenaerts et al., Antimicrob. Agents Chemother. 2003; 47:783-785). All aerosol infections were performed using a Middlebrook aerosol generation devise (Glas-Col, Terre Haute, Ind.).
# [6] = Oxidative metabolic lability in mouse liver microsomes; settings: 5 μM, 1 mg/mL microsomal protein, 20 min
# Experimental: as §3, §4, §5
# [7] = test system: Mycobacteria tuberculosis; experiment: MIC and drug response curve type (Tables A and B); assay type: cell-based, Mycobacterium tuberculosis; settings: Table A
# Experimental: A drug concentration response curve can be generated by graphing the log10 drug concentrations (μg/mL) against the difference in growth between the drug-treated wells and control wells. See FIG. 3C, and FIG. 5 (entries for SB-P23D8 and SB-P26D9). A NREBA is indicative of bacteriostatic activity above the MIC.
# as §1
# MIC values were determined for the benzimidazoles using a modified 96-well microplate Alamar Blue (resazurin) assay (MABA) (see Kumar et al., J. Med. Chem. 2011; 54:374-381; Collins and Franzblau, Antimicrob. Agents Chemother. 1997; 41:1004-1009). Dose response curves were generated from the MABA assay for compounds by graphing the log10 drug concentrations against the difference in growth between the drug-treated wells and control wells using GraphPad Prism Version 5.0d for Mac OS X (GraphPad Software, San Diego Calif., USA, www.graphpad.com). For time dose studies, bacterial growth in the presence of compound was monitored by the O.D. 600 nm. […] The values were plotted against time using GraphPad Prism Version 5.0d for Mac OS X (GraphPad Software, San Diego Calif., USA, www.graphpad.com).
# [8] = Cytotoxicity assay (resazurin, 72 h); assay type: cell-based; settings: African green monkey, Vero cells; 72 h
# Experimental: (§2) The cytotoxicity assay was performed as described previously^16. Briefly compounds were serially diluted in 96 well plates.
# Vero cells = experiment: Cytotoxicity assay (resazurin, 72 h); assay type: cell-based; settings: at 200 μg/mL
# Experimental: as §2
# M. tuberculosis Erdman = assay type: in vivo; settings: for Δ Lungs (difference between means of Test and Control Groups) / Δ Spleen (difference between means of Test and Control Groups) / Log10CFU Lungs / Log10CFU Spleen: 50 mg/kg b.i.d. (Inh q.d.); for Log10CFU Lungs / Log10CFU Spleen: day 15
# M. tuberculosis NHN20 = experiment: microbe, parasite or virus in culture; assay type: cell-based, Mycobacterium tuberculosis; settings: Mycobacterium tuberculosis
smiles,measurement,setting,value
CN(C)c1cc2[nH]c(C3CCCCC3)nc2cc1NC(=O)c1ccc(OC(F)(F)F)cc1F [SB-P17G-A38],MIC,[1],0.16 to 0.47 µg/mL
same,reduction in number of viable bacteria,M. tuberculosis H37Rv [2]; day 2,2.8 Log10 CFU
same,reduction in number of viable bacteria,M. tuberculosis H37Rv [2]; day 6,2.9 Log10 CFU
same,reduction in bacterial viability,M. tuberculosis H37Rv [2]; 3-6×MIC,3.6-4.4 Log10 CFU
same,MIC,M. tuberculosis H37Rv [3]; H37Rv,0.31 ± 0.22 µg/mL
same,MIC,"M. tuberculosis H37Rv [3]; Mycobacterium tuberculosis, H37RV",0.31 ± 0.22 µg/mL
same,MIC,M. tuberculosis TN587,0.31 µg/mL
same,Plasma Stability (% hydrolysis) Mouse (4 h),[4],−11.5%
same,MIC,M. tuberculosis NHN382,0.31 µg/mL
same,Liver Microsome Lability Human,[5],13%
same,MIC,M. tuberculosis W210,0.47 ± 0.22 µg/mL
same,Efficacy Lung,M. tuberculosis,Yes
same,Efficacy Spleen,M. tuberculosis,Yes
same,Liver Microsome Lability Mouse,[6],4%
same,Curve,[7]; drug response curve type,Sigmoid
same,MIC,[7]; in µg/mL,.156
same,IC50 at 72 h,[8],> 200 µg/mL
same,cytotoxicity in Vero cells,Vero cells,not cytotoxic; also recorded: non-toxic
same,reduction of bacterial load in the lungs,M. tuberculosis Erdman; 50 mg/kg b.i.d. via either IP or PO,6.1-6.3 Log10 CFU
same,Δ Lungs (difference between means of Test and Control Groups),M. tuberculosis Erdman; IP,−6.30*** Log10 CFU
same,Δ Spleen (difference between means of Test and Control Groups),M. tuberculosis Erdman; IP,−4.96*** Log10 CFU
same,Log10CFU Lungs,M. tuberculosis Erdman; IP,0.39 ± 0.63 Log10 CFU
same,Log10CFU Spleen,M. tuberculosis Erdman; IP,0 ± 0 Log10 CFU
same,Δ Lungs (difference between means of Test and Control Groups),M. tuberculosis Erdman; PO,−6.10*** Log10 CFU
same,Δ Spleen (difference between means of Test and Control Groups),M. tuberculosis Erdman; PO,−3.89*** Log10 CFU
same,Log10CFU Lungs,M. tuberculosis Erdman; PO,0.22 ± 0.34 Log10 CFU
same,Log10CFU Spleen,M. tuberculosis Erdman; PO,0 ± 0 Log10 CFU
same,reduction of bacterial load in the lungs,"M. tuberculosis Erdman; delivered IP, 50 mg/kg b.i.d.",6.3 Log10 CFU
same,reduction of bacterial load in the lungs,"M. tuberculosis Erdman; delivered PO, 50 mg/kg b.i.d.",6.1 Log10 CFU
same,MIC,M. tuberculosis NHN20,0.24 ± 0.11 µg/mL
